According to patent US8637560B2, “Imidazolidinone compounds, methods to inhibit deubiquitination and methods of treatment” (The United States of America as Represented by the …, priority 2007, dated 2014):
Like-named read-outs stand apart in the source and are kept apart here. Residues, ends and D or L forms follow the SMILES beside them. *: point of attachment. Cbz = O=C(OCc1ccccc1)*

Columns and labels:
ATF6 = ATF6 activation in HeLa cells, immunoblotting; settings: HeLa cells expressing Flag-tagged ATF6
Description: (E) HeLa cells expressing Flag-tagged ATF6 were treated with the indicated chemicals. Cell extracts were analyzed by immunoblotting. (F) HeLa cells expressing Flag-tagged ATF6 were treated with the indicated chemicals and stained with Flag antibodies. N, nucleus. Arrows indicate the position of the Golgi.

JEKO-1 cells = assay: Combination treatment of EerI and BH3 mimetic, MTT viability; settings: 48 h
Description: Cell viability was measured by the MTT assay. […] JEKO-1 cells were treated with the indicated compounds for 48 h. Cell viability was measured by the MTT assay.

primary CLL cells = assay: MTT viability assay, primary CLL samples; format: cell-based; settings: 3 days
Description: Experiments for FIGS. 1-5 were conducted in vitro by keeping cell lines in RPMI medium with 10% FCS and primary cells in AIM V medium. Cells were seeded into 96 well plates at a concentration of 4×10e5/ml for cell lines at a concentration of 5×10e6/mL for primary cells. Cells were incubated for 2 days (cell lines) or 3 days (primary samples) in the indicated concentration of drug (bortezomib from commercial clinical grade stock; EER1 provided by Dr. Ye and Dr. Trenkle). Viability was determined using the standard MTT assay. Synergy calculations were carried out with Calcusyn software.

[1] = system: MHC class I heavy chain (HC); assay: Degradation of MHC class I heavy chain in US11-expressing astrocytoma (A9) cells, fractionation and immunoblot; format: cell-based
Description: . […] The cells were permeabilized in a buffer containing 0.028% of digitonin, and fractionated into a pellet fraction containing the ER membranes and a supernatant fraction containing the cytosol (Shamu et al., 1999; Ye et al., 2001, 2003). HC was immunoprecipitated from detergent extracts of these fractions under denaturing condition, and analyzed by immunoblotting (Shamu et al., 1999; Wang et al., 2006). […] As a positive control, A9 cells were treated with MG132, a proteasome inhibitor. […] However, a significant fraction of HC accumulated in MG132-treated cells was non-ubiquitinated species with its N-linked glycan removed by a cytosolic N-glycanase (Hirsch et al., 2003; Blom et al., 2004). The accumulation of non-modified substrates upon inhibition of the proteasome function has been observed for many proteasomal substrates, and was generally attributed to deubiquitination by cytosolic DUBs. […]

eIF2α = eIF2α phosphorylation by immunoblotting; settings: JEKO-1 cells
Xbp1 mRNA = Xbp1 mRNA splicing by RT-PCR; settings: JEKO-1 cells
JEKO cells = assay: mRNA expression of BH3-domain proteins by quantitative RT-PCR
Description: The precipitated RNA was further purified by a RNA clean-up kit (Qiagen). The purified RNA was quantified, and used as template to synthesize cDNA. The expression of various genes was then determined by quantitative RT-PCR.

MHC class I heavy chain = settings: permeabilized US11 cells
[2] = system: recombinant retrovirus that expresses a GFP reporter gene; assay: Production of recombinant GFP retrovirus in GP293 packaging cells; format: cell-based; settings: unidentified retrovirus, medium collected 36 hours later, GFP fluorescence in target cells, read-out: IC50 for inhibition of production of recombinant retrovirus
Description: […]. Infection was allowed to proceed for 10 hours before the medium was replaced with fresh medium. The expression of the GFP protein as a result of viral infection was measured by a fluorescence meter. […]. The IC50 was ˜3 uM.

NOXA = NOXA protein level by immunoblotting; format: cell-based; settings: variety of cancer and transformed cell lines
Description: . […] Protein extracts were analyzed by immunoblotting. […] (D) NOXA knock-down cells.
; FIG. 16; data not shown).

[3] = system: p97-associated deubiquitination (PAD); assay: In vitro deubiquitination of p97-bound substrates immunoprecipitated from treated cells; settings: for effect on PAD: p97 complexes from treated cells
Description: To study PAD, a previously established in vitro deubiquitination assay was used. p97 and its associated substrates immunoprecipitated from cell extracts were incubated in vitro.

atx3 = assay: In vitro atx3-dependent deubiquitination of immunoprecipitated atx3-substrate complexes; format: biochemical; settings: for effect on atx3-mediated deubiquitination when added to purified atx3-substrate complex: added in vitro; for deubiquitination of atx3-bound ubiquitin conjugates from treated cells: complex isolated from treated cells, compared with control cells
[4] = system: polyubiquitinated proteins; assay: Accumulation of polyubiquitinated proteins in treated cells, immunoblot; format: cell-based; settings: for accumulation of polyubiquitinated proteins in cells: EerI and structurally related analogues, FIG. 12C, D
GFPμ = assay: Degradation of GFPμ in astrocytoma cells, immunoblot; format: cell-based; settings: 12 h
Description: […]. Astrocytoma cells expressing HA-tagged GFPμ were treated with the indicated chemicals (12 h). The steady state levels of GFPμ in whole cell extracts (WCE) were analyzed by immunoblotting (IB). Where as indicated, GFPμ was first immunoprecipitated before immunoblotting analyses.
Since a large portion of p97 is localized in the cytosol, it may be involved in degradation of misfolded cytosolic proteins. In fact, GFPμ, a model proteasomal substrate (Bence et al., 2005) appeared to be degraded in a p97 dependent manner, because the expression of a dominant negative p97 mutant stabilized this substrate in part as a p97-associated form (data not shown).

TCRα-GFP = assay: Degradation of overexpressed TCRα-GFP, immunoblot

O[C@H](CS)[C@H](O)CS (racemic) [DTT, dithiothreitol, reference compound]
ATF6 cleavage (ATF6): rapidly induced the cleavage of ATF6

CC(C)C(C(=O)O)N1C(=O)/C(=C\c2ccc(Br)cc2)SC1=S (stereo not drawn) [BH3i-1, reference compound]
toxicity as a single agent in MCL cells (JEKO-1 cells): did not induce significant toxicity

CC1(C)C(N(O)C(=O)Nc2ccc(Cl)cc2)N(c2ccc(Cl)cc2)C(=O)N1CC(=O)N/N=C/C=Cc1ccc([N+](=O)[O-])o1 (stereo not drawn) [EERI, 1-(4-chloro-phenyl)-3-[3-(4-chloro-phenyl)-5,5-dimethyl-1-[3-(5-nitro-furan-2-yl)-allyldiene-hydrazinocarbonylmethyl]-2-oxo-imidazolidin-4-yl]-1-hydroxyl-urea]
activity against primary CLL cells (primary CLL cells): highly active | polyubiquitinated HC in the cytosol [1]: polyubiquitinated HC was accumulated in the cytosol | eIF2α phosphorylation (eIF2α): induced eIF2α phosphorylation | ATF6 cleavage (ATF6): no increase in ATF6 cleavage | splicing of Xbp1 mRNA (Xbp1 mRNA): induced the splicing of Xbp1 | mRNA expression of BH3-domain proteins Noxa, Bim and Puma (JEKO cells): significantly induced | retrotranslocation and degradation of MHC class I heavy chain on addition to permeabilized cells (MHC class I heavy chain): did not inhibit | IC50 [2]: ~3000 nM | level of NOXA protein (NOXA): rapidly increased | effect on PAD [3]: blocks deubiquitination reactions associated with p97 | reduction of p97-bound polyubiquitinated substrates after in vitro incubation ([3]; substrates isolated from treated cells, non-treated cells ~60%): ~10% | activity of atx3 purified from treated cells on exogenously added ubiquitin oligomers (Ub2-7) (atx3; DMSO- vs EerI-treated cells): equally active | effect on atx3-mediated deubiquitination when added to purified atx3-substrate complex (atx3): had no effect | deubiquitination of atx3-bound ubiquitin conjugates from treated cells (atx3): more resistant to deubiquitination | time after treatment at which cells start to accumulate polyubiquitinated proteins [4]: ~1.5 h | amount of polyubiquitinated proteins accumulated for a given time period ([4]; 293T cells, FIG. 6D): more polyubiquitinated proteins than MG132-treated cells | accumulation of polyubiquitinated proteins in cells [4]: accumulation of polyubiquitinated proteins | form of GFPμ in treated cells (GFPμ): present almost exclusively as polyubiquitinated form | polyubiquitinated TCRα-GFP (TCRα-GFP): accumulated polyubiquitinated TCRα-GFP | effect of presence of EerI on cytotoxicity of the BH3 mimetic (JEKO-1 cells): strongly enhanced its cytotoxicity

CC1(C)C(N(O)C(=O)Nc2cccc3ccccc23)N(c2cccc3ccccc23)C(=O)N1CC(=O)N/N=C/C=Cc1ccc([N+](=O)[O-])o1 (stereo not drawn) [Eeyarestatin II, 1-[5,5-dimethyl-3-naphthalen-1-yl-1 [3-(5-nitro-furan-2-yl)-allyldiene-hydrazinocarbonylmethyl]-2-oxo-imidazolidin-4-yl]-3-naphthalen-1-yl-1-hydroxyl-urea]
accumulation of polyubiquitinated proteins in cells [4]: accumulation of polyubiquitinated proteins

CC(C)C[C@@H](C=O)NC(=O)[C@H](CC(C)C)NC(=O)[C@H](CC(C)C)NC(=O)OCc1ccccc1 [MG132, reference compound] (Cbz-Leu-Leu-Leu-aldehyde)
polyubiquitinated HC in the cytosol ([1]; A9 cells, 10 μM): accumulation of polyubiquitinated HC in the cytosol | effect on PAD [3]: did not apparently block PAD | deubiquitination of atx3-bound ubiquitin conjugates from treated cells (atx3): rapidly deconjugated | form of GFPμ in treated cells (GFPμ): mostly accumulated in the deubiquitinated form | polyubiquitinated TCRα-GFP (TCRα-GFP): polyubiquitinated TCRα-GFP was accumulated

CC(C)C[C@H](NC(=O)[C@H](Cc1ccccc1)NC(=O)c1cnccn1)B(O)O [bortezomib, reference compound]
mRNA expression of BH3-domain proteins Noxa, Bim and Puma (JEKO cells): only induces the expression of Noxa

ubiquitin aldehyde [reference compound]
effect on atx3-mediated deubiquitination when added to purified atx3-substrate complex (atx3): inhibited
